Experimental data: paper PMC12165799, “Antimicrobial peptide developed with machine learning sequence optimization targets drug resistant Staphylococcus aureus in mice” (The Journal of Clinical Investigation, 2025)
Converted amounts (≈) assume the structure as drawn. Like-named read-outs stand apart in the source and are kept apart here.

Tests used:
S. aureus MW2 = experiment: Minimal inhibitory concentration (MIC) assay, broth microdilution; type: cell-based, Staphylococcus aureus; settings: for MIC: Staphylococcus aureus
Experimental: 300 Synthesis of peptides
302 Piscataway, NJ, USA).
305 Minimal inhibitory concentration (MIC) assay
We made serial dilutions of 10×
We determined the MIC using OD600
Accordingly, we added 150 mM NaCl,
319 established protocol (5).

S. aureus MW2 membrane = experiment: Propidium iodide-based membrane permeability; type: cell-based, Staphylococcus aureus; settings: S. aureus MW2, 60 minutes
Experimental: 484 min at room temperature in the dark based on a previously established protocol (8). We added 90
485 µl of the dye/bacteria mixture to 10 μl of serially diluted 10× peptide concentration in black, 96-
486 well plates (Cat. no. 3904, Corning, NY, USA) and incubated the plates for 1 hour at room
487 temperature. We measured the fluorescence with excitation and emission wavelengths of 485 nm
488 and 525 nm, respectively in endpoint assay mode using a SpectraMax i3x (Molecular Devices,
489 CA, USA) fluorescence reader.
490 Propidium iodide-based membrane permeability
491 We used a propidium iodide (Thermo Fisher Scientific, MA, USA) fluorescence-based
492 bacterial permeation assay to establish membrane-oriented interactions with the designed peptides
493 based on a previously established protocol (8). We prepared exponential phase S. aureus MW2
494 bacteria and diluted to OD600 = 0.4 in PBS. We added PI dye (final concentration = 2 µM) to the
495 bacteria in 1:10 serial dilutions in black, 96-well plates (Cat. no. 3904, Corning, NY, USA) and
496 incubated the plates for 1 hour at room temperature. We then measured the fluorescence with an
497 excitation wavelength of 584 nm and an emission wavelength of 620 nm in endpoint assay mode
498 using a SpectraMax i3x (Molecular Devices, CA, USA) fluorescence reader.
501 To determine the ATP leakage potential of the peptides, we employed a luciferase-based
502 assay(18). In brief, we washed exponential phase of S. aureus MW2 bacteria three times with PBS
503 (pH 7.4) and adjusted the washed cells to OD600 = 0.4 in PBS. Following treatment of the bacteria
504 with 32 µg/ml of CIT-8 peptide at 37°C for 30 min, we centrifuged the cells at 14,000× g for 5
505 min. We transferred 50 µl of each supernatant fraction to black, clear-bottom, 96-well plates

[1] = system: S. aureus MW2 24 h established biofilm; settings: 24 h treatment
Experimental: 346 plated onto TSA plates, and incubated plates at 37°C overnight. The next day, we counted the
347 viable bacterial colonies.
We used TSB medium containing
356 bacteria with water as the positive control, while TSB media with sterile water served as the
357 negative control. After incubation, we carefully removed the TSB medium and washed the wells
358 with PBS (Gibco, MD, USA) to remove loosely attached planktonic cells. We quantified the
359 biomass by staining the biofilms with crystal violet following an established protocol and
360 quantitated the concentration of peptide that inhibits 50% of biofilm formation (MBIC50)(8). We
361 measured the live cell count of the biofilms using XTT dye [2,3-bis(2-methyloxy-4-nitro-5-
362 sulfophenyl)-2H-tertazolium-5-carboxanilide] (ATCC, VA, USA). We calculated the percentage
363 of biofilm growth by normalizing to biofilm growth in wells containing bacteria without peptide
366 Disruption of S. aureus MW2 established biofilms
367 We evaluated the ability of the citropin 1.1-derived peptides to disrupt established biofilms
368 following an established protocol with modifications (5). We prepared exponential cultures of S.
369 aureus MW2 (adjusted to 1 × 10^6 CFU/ml) in TSB medium (supplemented with 0.2% glucose)
370 from overnight grown cultures. We added 100 µl of bacterial culture to flat-bottomed 96-well
371 polystyrene microtiter plates (Cat no. 3595, Corning, NY, USA). We then incubated the plates at
372 37°C for 24 hours in static conditions to allow biofilm formation. After incubation, we carefully
373 pipetted out the TSB medium and washed the wells with PBS (Gibco, MD, USA) to remove
374 loosely attached planktonic cells. We treated the established biofilms in each well with 10 µl of
375 serially diluted 10× peptide solution, followed by the addition of 90 μl TSB medium
376 (supplemented with 0.2% glucose). We incubated the plates for another 24 h at 37°C before
377 processing biomass and live-cell contents. We calculated the concentration of peptide that disrupts
378 50% of established biofilms (MBEC50).

Row | Compound | Propidium iodide fluorescence (membrane permeation) (S. aureus MW2 membrane) | Established biofilm, biomass (crystal violet), percentage of untreated ([1]; 4 μg/ml, replicate 1) | Established biofilm, live-cell viability (XTT), percentage of untreated ([1]; 4 μg/ml, replicate 1) | Established biofilm, biomass (crystal violet), percentage of untreated ([1]; 4 μg/ml, replicate 2) | Established biofilm, live-cell viability (XTT), percentage of untreated ([1]; 4 μg/ml, replicate 2) | Established biofilm, biomass (crystal violet), percentage of untreated ([1]; 4 μg/ml, replicate 3) | Established biofilm, live-cell viability (XTT), percentage of untreated ([1]; 4 μg/ml, replicate 3) | Established biofilm, biomass (crystal violet), percentage of untreated ([1]; 8 μg/ml, replicate 1) | Established biofilm, live-cell viability (XTT), percentage of untreated ([1]; 8 μg/ml, replicate 1) | Established biofilm, live-cell viability (XTT), percentage of untreated ([1]; 8 μg/ml, replicate 2) | Established biofilm, biomass (crystal violet), percentage of untreated ([1]; 8 μg/ml, replicate 3) | Established biofilm, live-cell viability (XTT), percentage of untreated ([1]; 8 μg/ml, replicate 3) | Established biofilm, biomass (crystal violet), percentage of untreated ([1]; 16 μg/ml, replicate 1) | Established biofilm, live-cell viability (XTT), percentage of untreated ([1]; 16 μg/ml, replicate 1) | Established biofilm, biomass (crystal violet), percentage of untreated ([1]; 16 μg/ml, replicate 2) | Established biofilm, live-cell viability (XTT), percentage of untreated ([1]; 16 μg/ml, replicate 2) | Established biofilm, biomass (crystal violet), percentage of untreated ([1]; 16 μg/ml, replicate 3) | Established biofilm, live-cell viability (XTT), percentage of untreated ([1]; 16 μg/ml, replicate 3) | Established biofilm, biomass (crystal violet), percentage of untreated ([1]; 32 μg/ml, replicate 1) | Established biofilm, live-cell viability (XTT), percentage of untreated ([1]; 32 μg/ml, replicate 1) | other results
1 | CN[C@H](CC(C)C)C(=O)N[C@H]1C(=O)N[C@@H](CC(N)=O)C(=O)N[C@H]2C(=O)N[C@H]3C(=O)N[C@H](C(=O)N[C@H](C(=O)O)c4cc(O)cc(O)c4-c4cc3ccc4O)[C@H](O)c3ccc(c(Cl)c3)Oc3cc2cc(c3O[C@@H]2O[C@H](CO)[C@@H](O)[C@H](O)[C@H]2O[C@H]2C[C@](C)(N)[C@H](O)[C@H](C)O2)Oc2ccc(cc2Cl)[C@H]1O [Vancomycin, reference compound] | did not induce fluorescence | 149.693 | 100.129 | 84.8543 | 106.559 | 49.5143 | 106.192 | 88.3691 | 102.865 | 105.547 | 88.3308 | 106.722 | 138.471 | 64.3129 | 273.773 | 78.7072 | 273.774 | 47.5625 | 98.1851 | 0.7061 | MIC (S. aureus MW2; MW2, 18 h, read-out: MIC SA): ≤ 0.125 µg/mL; MIC (S. aureus MW2; read-out: MIC + MgSO4 (1 mM), S. aureus MW2, TSB + 1 mM MgSO4): ≤ 1 µg/mL; MIC (S. aureus MW2; read-out: MIC + human serum (10%), S. aureus MW2, TSB + 10% human serum): ≤ 1 µg/mL; MIC (S. aureus MW2; S. aureus MW2, TSB + 8 μM ZnSO4, read-out: MIC + ZnSO4 (8 μM)): ≤ 1 µg/mL; MIC (S. aureus MW2; S. aureus MW2, TSB + 2.5 mM CaCl2, read-out: MIC + CaCl2 (2.5 mM)): ≤ 1 µg/mL; MIC (S. aureus MW2; S. aureus MW2, TSB + 150 mM NaCl, read-out: MIC + NaCl (150 mM)): ≤ 1 µg/mL; MIC (S. aureus MW2; S. aureus MW2, TSB + 5% human serum, read-out: MIC + human serum (5%)): ≤ 1 µg/mL; MIC (S. aureus MW2; S. aureus MW2, TSB, read-out: MIC, Medium only): 1 µg/mL (≈ 0.69 µM); Established biofilm, biomass (crystal violet), percentage of untreated ([1]; 32 μg/ml, replicate 2): 78.1697; Established biofilm, live-cell viability (XTT), percentage of untreated ([1]; 32 μg/ml, replicate 2): 1.691; Established biofilm, biomass (crystal violet), percentage of untreated ([1]; 32 μg/ml, replicate 3): 90.9509; Established biofilm, live-cell viability (XTT), percentage of untreated ([1]; 32 μg/ml, replicate 3): 6.084
2 | H-GLFKVIKKLLKVI-NH2 [CIT-8] | increased fluorescence compared with untreated controls | 131.685 | 82.5027 | 134.586 | 94.0114 | 61.6564 | 89.5709 | 62.9601 | 83.9897 | 89.9036 | 70.3988 | 92.7553 | 49.8211 | 6.002 | 67.6508 | 15.664 | 56.1605 | 21.3742 | 28.3231 | 9.9063 | MIC, Medium only (S. aureus MW2; S. aureus MW2, TSB): 4 µg/mL; MIC + ZnSO4 (8 μM) (S. aureus MW2; S. aureus MW2, TSB + 8 μM ZnSO4): 4 µg/mL; MIC + MgSO4 (1 mM) (S. aureus MW2; S. aureus MW2, TSB + 1 mM MgSO4): 4 µg/mL; MIC + CaCl2 (2.5 mM) (S. aureus MW2; S. aureus MW2, TSB + 2.5 mM CaCl2): 4 µg/mL; MIC + NaCl (150 mM) (S. aureus MW2; S. aureus MW2, TSB + 150 mM NaCl): 4 µg/mL; MIC + human serum (5%) (S. aureus MW2; S. aureus MW2, TSB + 5% human serum): 8 µg/mL; MIC + human serum (10%) (S. aureus MW2; S. aureus MW2, TSB + 10% human serum): 8 µg/mL; Increase of MIC in human serum (S. aureus MW2; S. aureus MW2, 5%–10% human serum): 2 fold; MIC SA (S. aureus MW2; S. aureus MW2, broth microdilution, TSB, 1 × 10^6 CFU/ml, 37°C 18 h, OD600, duplicate): 4 µg/mL; Established biofilm, biomass (crystal violet), percentage of untreated ([1]; 8 μg/ml, replicate 2): 123.287; Established biofilm, biomass (crystal violet), percentage of untreated ([1]; 32 μg/ml, replicate 2): 39.7878; Established biofilm, live-cell viability (XTT), percentage of untreated ([1]; 32 μg/ml, replicate 2): 2.777; Established biofilm, biomass (crystal violet), percentage of untreated ([1]; 32 μg/ml, replicate 3): 32.068; Established biofilm, live-cell viability (XTT), percentage of untreated ([1]; 32 μg/ml, replicate 3): 4.02; Concentration killing 50% of live cells in 24 h established biofilm ([1]; XTT): 12 µg/mL; MBEC50 (50% of biomass disrupted) ([1]; crystal violet, 24 h established biofilm): 24 µg/mL
